Test systems include KM12 colon; DMS 273 small cell lung; DMS 114 small cell lung; HT29 colon; OVCAR-5 ovarian; SNB-78 CNS; COLO 205 colon; NCI/ADR-RES ovarian; A498 renal; SR leukemia; RPMI-8226 leukemia.
Holding throughout (experiment): NCI anticancer screen, dose series, 48 h

Structures are written as SMILES. Where “and” joins values, the source holds several entries; their conditions need not be identical. Identical values can stand only once.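 Compound exposure: 48 hours, 5 concentrations, 96-well plates. Abbreviation: GI50, concentration required for 50% inhibition of growth. TGI: total growth inhibition.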

`c1ccc2c(c1)SCCc1cn[nH]c1-2`: the TGI in the experiment with KM12 colon, in the experiment with DMS 273 small cell lung, with DMS 114 small cell lung, in the experiment on HT29 colon, in the experiment with OVCAR-5 ovarian and with SNB-78 CNS was over 100 µM in each case. For the same compound, the TGI in the experiment on COLO 205 colon, with NCI/ADR-RES ovarian and with A498 renal was over 100 µM throughout.
In the case of `O=S(O)CCCSSSCCCS(=O)O`, the TGI with KM12 colon, in the experiment on DMS 114 small cell lung, in the experiment with HT29 colon, in the experiment with OVCAR-5 ovarian, in the experiment with SNB-78 CNS and with SR leukemia was over 100 µM throughout. Besides, in the experiment on A498 renal, the TGI is over 100 µM.
As to `CSCC(CO)NC(=O)/C=C/c1c(C)[nH]c(=O)[nH]c1=O` (stereo not given), the TGI with KM12 colon is over 875 µM; in the experiment with RPMI-8226 leukemia, over 875 µM; in the experiment on DMS 273 small cell lung it was over 875 µM; with DMS 114 small cell lung it was over 801 µM; in the experiment with HT29 colon, over 875 µM; in the experiment with OVCAR-5 ovarian it was over 875 µM. The TGI in the experiment with SNB-78 CNS is over 875 µM; with COLO 205 colon, over 775 µM; with NCI/ADR-RES ovarian, over 875 µM; in the experiment with A498 renal, over 875 µM.
Consider `Nc1ccc(Cn2ccc3c4c(N)nc(N)nc4ccc32)cc1`, for which the TGI with KM12 colon was 12.2 µM; in the experiment on RPMI-8226 leukemia, over 100 µM; in the experiment with DMS 273 small cell lung it was 11.9 µM; in the experiment on DMS 114 small cell lung, 1.94 µM; with HT29 colon, 2.18 µM; in the experiment with OVCAR-5 ovarian, 19.4 µM. The TGI with SNB-78 CNS is 32.5 µM; in the experiment with COLO 205 colon it was 2.72 µM; in the experiment on SR leukemia it was 4.74 µM; with NCI/ADR-RES ovarian it was over 100 µM.
As for `c1ccc2c(c1)SP1Sc3ccccc3P21` (stereo not given), the TGI with KM12 colon, in the experiment on RPMI-8226 leukemia, with DMS 273 small cell lung, in the experiment with DMS 114 small cell lung, in the experiment with HT29 colon and with OVCAR-5 ovarian was over 100 µM each time. The TGI in the experiment on SNB-78 CNS, in the experiment with COLO 205 colon, in the experiment with NCI/ADR-RES ovarian and in the experiment with A498 renal was over 100 µM throughout.
With `S=c1[nH]n2c(COc3ccc(Cl)cc3)nnc2s1`, the TGI with KM12 colon, in the experiment with RPMI-8226 leukemia, with HT29 colon, in the experiment with OVCAR-5 ovarian, in the experiment on COLO 205 colon and with SR leukemia was over 100 µM each time. In addition, the TGI in the experiment with NCI/ADR-RES ovarian was over 100 µM.
For the compound `CC1(C)N=C(c2ccccc2)SC12S[C@@H]1CCCC[C@H]1S2`, the TGI in the experiment with KM12 colon, with RPMI-8226 leukemia, in the experiment with HT29 colon, in the experiment with OVCAR-5 ovarian, in the experiment on COLO 205 colon and with NCI/ADR-RES ovarian was over 100 µM each time. Also, the TGI with A498 renal was 33.9 µM.
Turning to `CN(C)c1cccc(OC(=O)NCCCl)c1`, the TGI with KM12 colon, in the experiment on RPMI-8226 leukemia, with DMS 273 small cell lung, with DMS 114 small cell lung, with HT29 colon and in the experiment with OVCAR-5 ovarian was over 100 µM in each case. For the same compound, the TGI with SNB-78 CNS is over 100 µM; with COLO 205 colon, over 100 µM; in the experiment with NCI/ADR-RES ovarian, over 100 µM; with A498 renal it was 93.6 µM and > 100 µM. Also, the GI50 is over 100 µM in the experiment with RPMI-8226 leukemia, over 100 µM in the experiment on SNB-78 CNS and 13.9 µM with A498 renal.
In the case of `COCCNCc1ccc(-c2cc3nccc(Oc4ccc(NC(=O)C5(C(=O)Nc6ccc(F)cc6)CC5)cc4F)c3s2)nc1`, the GI50 in the experiment with KM12 colon is 0.0411 µM; in the experiment on RPMI-8226 leukemia it was 2.05 µM; in the experiment on HT29 colon, 0.912 µM; in the experiment on COLO 205 colon it was 1.55 µM; with SR leukemia it was 1.96 µM; in the experiment with NCI/ADR-RES ovarian it was 1.74 µM. Besides, the TGI came to 2.95 µM in the experiment on KM12 colon; 5.07 µM in the experiment on RPMI-8226 leukemia; 2.89 µM in the experiment on HT29 colon; 3.68 µM with COLO 205 colon; 6.04 µM with SR leukemia; 4.25 µM in the experiment on NCI/ADR-RES ovarian.
As to `Cc1cccc2c1Sc1ccccc1C2NC(=O)CN(C)C` (stereo not given), the TGI with RPMI-8226 leukemia, in the experiment on DMS 273 small cell lung, in the experiment with DMS 114 small cell lung, in the experiment on HT29 colon, in the experiment with OVCAR-5 ovarian and in the experiment on SNB-78 CNS was over 100 µM in each case. Besides, the TGI with COLO 205 colon and with SR leukemia was over 100 µM throughout.
With `CO/C=C1\OC(=O)C=C1OC`, the TGI with KM12 colon, with RPMI-8226 leukemia, with DMS 273 small cell lung, in the experiment on DMS 114 small cell lung, in the experiment with HT29 colon and in the experiment with OVCAR-5 ovarian was over 100 µM in each case. Also, the TGI in the experiment with SNB-78 CNS, with COLO 205 colon, with NCI/ADR-RES ovarian and in the experiment on A498 renal was over 100 µM in each case.
For `c1csc(-c2ccc(CNc3c4ccccc4nc4ccccc34)cc2)c1`, the results for the GI50 in the experiment on RPMI-8226 leukemia and in the experiment on A498 renal were 1.85 µM and 1.22 µM, respectively. Also, the TGI with RPMI-8226 leukemia came to 4.8 µM; in the experiment on A498 renal, 2.52 µM.
In the case of `CN(c1ccccc1)c1nc(=[N+]2CCCC2)ss1`, the TGI in the experiment on KM12 colon, in the experiment with RPMI-8226 leukemia, in the experiment with DMS 273 small cell lung, with DMS 114 small cell lung, in the experiment with SNB-78 CNS and with COLO 205 colon was over 100 µM each time. The TGI with SR leukemia and in the experiment on A498 renal was over 100 µM in each case.

Values taken from PubChem BioAssay (NCI).
